Reference: article PMC6421704 (Journal of Experimental & Clinical Cancer Research : CR, 2019)
“Also recorded” adds a separate entry of the source. Where two headings read alike, the source gives them in different places.

Assays:
TrkB signaling = assay: BDNF-induced TrkB signaling in HepG2 cells (Western blot); assay type: cell-based, human
Experimental: (§3) Data are shown as the mean ± S.D. and are representative of three independent experiments. ** p < 0.01, *** p < 0.001.
(b) HepG2 cells were treated with BDNF (10 ng/ml) alone or BDNF (10 ng/ml) and HGF (10 ng/ml) for the indicated time and the activation of TrkB signaling pathway was examined. […] The activation of the TrkB and c-Met signaling pathways were examined. […] The activation of the TrkB and c-Met signaling pathways were examined. […] Data are shown as the mean ± S.D. and are representative of three independent experiments. **p < 0.01, ***p < 0.001
(§4) For western blots, cells were lysed with M-PER? Mammalian Protein Extraction Reagent (Pierce, Rockford, IL, USA). Then, western blot analysis was performed according to standard procedures. Chemiluminescent detection was conducted using supersignal substrate (Pierce) according to the manufacturer’s specifications.

[1] = test system: HepG2 cell line tumor xenografts; assay: HepG2 xenograft tumor model in nude mice; assay type: in vivo
Experimental: First, 2 × 10^6 HepG2 cells, 4 × 10^6 MHCC 97H cells, 4 × 10^6MHCC 97 L cells, 2 × 10^6 A549 cells, or 5 × 10^6 SMMC-7721 cells in a volume of 200 μl PBS were inoculated subcutaneously in the right flank of each mouse. Tumor growth was measured using vernier calipers, and tumor volume (mm^3) was calculated as (L × W × H)/2. When the mean tumor volume reached 200 mm^3, the mice were randomized into four groups and treatment was initiated. […] Tumor volume were recorded every 3 days until the study was terminated. The mice were sacrificed after 21 days of treatment.
The inhibition rate was calculated.
The tumor weights were measured, and the inhibition rate was calculated. Data are shown as the mean ± S.D. and are representative of three independent experiments. **p < 0.01, ***p < 0.001

HepG2 cells [2] = assay: HepG2 cell growth with Crizotinib and GNF-5837; assay type: cell-based; settings: Homo sapiens, read-out: growth inhibition rate
Experimental: The inhibition rate was calculated (right panel).

c-Met signaling pathway = assay: HGF-induced c-Met signaling pathway activation in HepG2 cells (Western blot)
Experimental: (a) HepG2 cells were treated with HGF (10 ng/ml) alone or HGF (10 ng/ml) and BDNF (10 ng/ml) for the indicated time and the activation of c-Met signaling pathway was examined.
as §4

AXL = AXL (Homo sapiens, UniProt P30530); assay: In vitro kinase activity assay (HDB Kinase Selectivity Profiling); assay type: biochemical; settings: Kinase Glo Plus assay format
MDCK cells [3] = assay: HGF-stimulated MDCK cell scattering; settings: Indo5 pretreated 2 h, HGF 20 ng/ml 12 h, dose-dependent
Experimental: Cells were plated into 96-well plates (1.5 × 10^3 cells/well) and grown until small colonies appeared. […] After 24h incubation, cells were fixed with 90% methanol for 30min at room temperature and stained by 1% crystal violet. Scattered clones were photographed.

PDGFRα = PDGFRα (Homo sapiens, UniProt P16234); assay: In vitro kinase activity assay (HDB Kinase Selectivity Profiling); assay type: biochemical; settings: Kinase Glo Plus assay format
Sequence of PDGFRα (P16234 24-1089): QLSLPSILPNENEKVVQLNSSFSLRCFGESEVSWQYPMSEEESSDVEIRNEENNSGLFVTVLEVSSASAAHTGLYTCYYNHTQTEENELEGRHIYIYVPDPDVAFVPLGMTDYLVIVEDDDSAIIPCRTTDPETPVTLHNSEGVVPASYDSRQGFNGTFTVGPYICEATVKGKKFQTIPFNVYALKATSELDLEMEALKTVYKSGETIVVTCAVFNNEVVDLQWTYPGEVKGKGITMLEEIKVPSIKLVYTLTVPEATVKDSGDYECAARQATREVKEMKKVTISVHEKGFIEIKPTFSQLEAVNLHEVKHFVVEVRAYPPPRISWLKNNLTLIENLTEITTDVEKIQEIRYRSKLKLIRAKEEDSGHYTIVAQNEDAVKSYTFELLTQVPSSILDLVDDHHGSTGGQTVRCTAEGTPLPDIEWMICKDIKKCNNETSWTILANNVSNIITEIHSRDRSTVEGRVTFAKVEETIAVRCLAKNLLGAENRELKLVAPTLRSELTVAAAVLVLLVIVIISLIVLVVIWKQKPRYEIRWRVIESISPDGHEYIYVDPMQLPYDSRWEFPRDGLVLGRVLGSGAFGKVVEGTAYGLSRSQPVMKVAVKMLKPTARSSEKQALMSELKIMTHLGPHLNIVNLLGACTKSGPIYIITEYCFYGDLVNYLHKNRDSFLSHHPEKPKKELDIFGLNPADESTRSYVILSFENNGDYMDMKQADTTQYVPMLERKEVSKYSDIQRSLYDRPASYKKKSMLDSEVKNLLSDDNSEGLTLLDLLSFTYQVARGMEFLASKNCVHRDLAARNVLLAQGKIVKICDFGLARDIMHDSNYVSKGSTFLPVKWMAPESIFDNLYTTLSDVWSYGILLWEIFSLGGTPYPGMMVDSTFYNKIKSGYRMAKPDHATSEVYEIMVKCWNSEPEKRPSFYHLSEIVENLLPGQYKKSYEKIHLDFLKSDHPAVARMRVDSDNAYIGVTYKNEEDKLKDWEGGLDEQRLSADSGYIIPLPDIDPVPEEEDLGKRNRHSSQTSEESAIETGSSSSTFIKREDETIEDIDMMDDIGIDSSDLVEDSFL

[4] = Body weight in liver orthotopic mouse model; assay type: in vivo, mice
orthotopic tumors = assay: Histological examination of liver from mice bearing orthotopic tumors (H&E); assay type: in vivo; settings: 48 mg/kg Indo5
From the text: Figure S8. H&E staining of livers from mice bearing orthotopic tumors treated with the vehicle or Indo5.

C-KIT = C-KIT (Homo sapiens, UniProt P10721); assay: In vitro kinase activity assay (Caliper assay format); assay type: biochemical
RET = RET (Homo sapiens, UniProt P07949); assay: In vitro kinase activity assay (HDB Kinase Selectivity Profiling); assay type: biochemical; settings: Kinase Glo Plus assay format
[5] = test system: HGF-induced vasculature formation; assay: Matrigel plug assay, HGF-induced angiogenesis in vivo; parameters: species or system BALB/c mice; settings: Matrigel plug with HGF (50 ng/ml) and Indo5 (10 μM, 20 μM), 7 days
Experimental: After 7 days, mice were sacrificed and the Matrigel plugs were fixed in 10% buffered formaldehyde, which was embedded in paraffin, and sectioned. The sections were stained with hematoxylin and eosin(H&E). H&E staining was performed to identify the formation and infiltration of new, functional microvessles.

Ba/F3-Tpr-Met cells [6] = assay: cells; settings: Mus musculus, read-out: IC50 of IL-3-independent growth
TrkA signaling = assay: NGF-induced TrkA signaling in SK-N-SH cells (Western blot); settings: 1 μM Indo5, pretreated 2 h, NGF 500 ng/ml 5 min
Experimental: as §3, §4

mouse hepatocytes = assay: HGF-induced proliferation of mouse hepatocytes (MTS assay)
HepG2 cells [7] = assay: BDNF-induced HepG2 cell migration; settings: HepG2, BDNF 50 ng/ml, 24 h
Experimental: (§5) For the migration assay, 2×10^5 cells were seeded on 8µm polycarbonate membrane (Transwell; Costar). […] After 24h migration cells were counted.

MDCK cells [8] = assay: MDCK cell proliferation (MTS assay); assay type: cell-based, Canine; settings: scattering conditions
Experimental: (§1) All experiments were conducted three times.
Figure S1. […] Cell proliferation was anaylzed with MTS assay.

SK-N-SH xenograft = SK-N-SH xenograft mice; assay type: in vivo
Experimental: (§2) Tumor growth was measured using vernier calipers, and tumor volume (mm^3) was calculated as (L × W × H)/2. When the mean tumor volume reached 200 mm^3, the mice were randomized into four groups and treatment was initiated. Indo5 in DMSO was injected intraperitoneally into the mice once daily at the indicated doses. Tumor volume were recorded every 3 days until the study was terminated. The mice were sacrificed after 21 days of treatment. Solid tumors were excised and weighed, and the inhibition rate was calculated as […].

Ba/F3-TrkB cells = assay: BDNF-induced growth of TrkB-transfected Ba/F3 cells; settings: BDNF 50 ng/ml 48 h, dose-dependent
Experimental: Cell proliferation was measured and the proliferation index was calculated. […] Data are shown as the mean ± S.D. and are representative of three independent experiments. ** p < 0.01, *** p < 0.001.

EGFR = EGFR (Homo sapiens, UniProt P00533); assay: In vitro kinase activity assay (HDB Kinase Selectivity Profiling); assay type: biochemical; settings: Kinase Glo Plus assay format
C-KIT(v654A) = C-KIT(v654A) (Homo sapiens, UniProt P10721, V654A); assay: In vitro kinase activity assay (Caliper assay format); assay type: biochemical
InsR = InsR (Homo sapiens, UniProt P06213); assay: In vitro kinase activity assay (HDB Kinase Selectivity Profiling); assay type: biochemical; settings: Kinase Glo Plus assay format
[9] = test system: c-Met^loTrkB^hi and c-Met^loTrkB^lo cells; assay: Cell growth of cells expressing TrkB alone or both low; assay type: cell-based; settings: Homo sapiens, read-out: IC50 value, range over cell lines
IGF1R = IGF1R (Homo sapiens, UniProt P08069); assay: In vitro kinase activity assay (HDB Kinase Selectivity Profiling); assay type: biochemical; settings: Kinase Glo Plus assay format
Sequence of IGF1R (P08069 31-1367): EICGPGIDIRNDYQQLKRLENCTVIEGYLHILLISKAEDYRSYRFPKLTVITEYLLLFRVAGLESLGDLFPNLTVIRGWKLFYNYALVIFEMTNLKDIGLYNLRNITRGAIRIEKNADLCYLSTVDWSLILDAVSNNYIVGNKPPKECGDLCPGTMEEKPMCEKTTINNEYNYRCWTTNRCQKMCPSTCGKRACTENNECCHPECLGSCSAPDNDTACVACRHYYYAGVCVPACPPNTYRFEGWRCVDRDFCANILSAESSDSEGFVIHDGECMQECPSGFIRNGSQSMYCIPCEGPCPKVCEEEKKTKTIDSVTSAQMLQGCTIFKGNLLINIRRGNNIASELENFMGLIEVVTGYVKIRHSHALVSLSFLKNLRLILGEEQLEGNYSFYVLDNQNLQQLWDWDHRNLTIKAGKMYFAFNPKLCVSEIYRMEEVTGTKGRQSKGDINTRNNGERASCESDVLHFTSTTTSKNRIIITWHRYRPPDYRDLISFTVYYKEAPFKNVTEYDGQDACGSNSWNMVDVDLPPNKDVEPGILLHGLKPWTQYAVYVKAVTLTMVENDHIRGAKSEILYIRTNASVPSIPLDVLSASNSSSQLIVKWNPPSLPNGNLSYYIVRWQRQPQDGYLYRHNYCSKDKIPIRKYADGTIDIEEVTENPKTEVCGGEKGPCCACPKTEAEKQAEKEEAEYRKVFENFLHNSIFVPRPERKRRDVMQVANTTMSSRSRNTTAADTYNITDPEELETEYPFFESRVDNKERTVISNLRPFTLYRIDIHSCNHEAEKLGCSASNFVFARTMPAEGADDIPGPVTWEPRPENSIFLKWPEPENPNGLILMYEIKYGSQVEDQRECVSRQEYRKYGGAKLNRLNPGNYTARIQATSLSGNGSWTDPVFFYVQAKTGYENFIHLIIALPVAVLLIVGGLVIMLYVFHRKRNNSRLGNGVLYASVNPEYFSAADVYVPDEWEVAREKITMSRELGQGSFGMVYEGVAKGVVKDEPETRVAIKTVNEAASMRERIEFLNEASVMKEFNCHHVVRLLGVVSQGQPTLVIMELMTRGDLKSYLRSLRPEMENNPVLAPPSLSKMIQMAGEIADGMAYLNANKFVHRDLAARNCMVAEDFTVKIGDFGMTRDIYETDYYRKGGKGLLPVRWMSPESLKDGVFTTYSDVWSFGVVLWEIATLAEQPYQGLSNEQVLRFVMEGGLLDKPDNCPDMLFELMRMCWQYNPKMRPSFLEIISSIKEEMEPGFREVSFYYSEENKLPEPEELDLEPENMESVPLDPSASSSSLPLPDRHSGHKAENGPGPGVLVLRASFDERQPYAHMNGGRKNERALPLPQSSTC

[10] = test system: orthotopic HepG2 cell xenografts; assay: Orthotopic HepG2 cell xenografts (liver orthotopic mouse model)
[11] = test system: HepG2 cell line tumor xenografts; assay: TUNEL staining of HepG2 tumor xenografts; assay type: in vivo, nude mice; settings: HepG2 xenograft, Indo5-treated
Ephb1 = Ephb1 (Homo sapiens, UniProt P54762); assay: In vitro kinase activity assay (Caliper assay format); assay type: biochemical
Half-life in plasma = assay type: in vitro ADME; settings: data not shown
EGFR(T790,L858R) = EGFR(T790,L858R) (Homo sapiens, UniProt P00533, L858R/T790M); assay: In vitro kinase activity assay (HDB Kinase Selectivity Profiling); assay type: biochemical; settings: Kinase Glo Plus assay format
Sequence of EGFR(T790,L858R) (P00533 669-1210 T790M/L858R limits assumed): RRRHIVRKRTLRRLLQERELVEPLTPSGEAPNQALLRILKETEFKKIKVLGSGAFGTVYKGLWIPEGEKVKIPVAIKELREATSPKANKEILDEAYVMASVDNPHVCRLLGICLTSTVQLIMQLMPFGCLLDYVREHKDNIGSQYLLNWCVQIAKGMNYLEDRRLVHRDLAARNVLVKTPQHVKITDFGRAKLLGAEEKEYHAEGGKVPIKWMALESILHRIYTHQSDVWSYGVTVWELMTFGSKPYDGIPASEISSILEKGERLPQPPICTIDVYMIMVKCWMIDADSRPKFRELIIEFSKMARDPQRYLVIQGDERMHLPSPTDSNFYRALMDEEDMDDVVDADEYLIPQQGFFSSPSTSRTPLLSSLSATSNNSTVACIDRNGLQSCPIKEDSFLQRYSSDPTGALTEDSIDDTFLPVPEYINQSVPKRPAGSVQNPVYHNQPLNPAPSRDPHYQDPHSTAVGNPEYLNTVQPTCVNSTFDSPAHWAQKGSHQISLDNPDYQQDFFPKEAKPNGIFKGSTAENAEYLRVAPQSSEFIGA

FLT1 = FLT1 (Homo sapiens, UniProt P17948); assay: as above; assay type: biochemical; settings: Kinase Glo Plus assay format
Sequence of FLT1 (P17948 27-1338): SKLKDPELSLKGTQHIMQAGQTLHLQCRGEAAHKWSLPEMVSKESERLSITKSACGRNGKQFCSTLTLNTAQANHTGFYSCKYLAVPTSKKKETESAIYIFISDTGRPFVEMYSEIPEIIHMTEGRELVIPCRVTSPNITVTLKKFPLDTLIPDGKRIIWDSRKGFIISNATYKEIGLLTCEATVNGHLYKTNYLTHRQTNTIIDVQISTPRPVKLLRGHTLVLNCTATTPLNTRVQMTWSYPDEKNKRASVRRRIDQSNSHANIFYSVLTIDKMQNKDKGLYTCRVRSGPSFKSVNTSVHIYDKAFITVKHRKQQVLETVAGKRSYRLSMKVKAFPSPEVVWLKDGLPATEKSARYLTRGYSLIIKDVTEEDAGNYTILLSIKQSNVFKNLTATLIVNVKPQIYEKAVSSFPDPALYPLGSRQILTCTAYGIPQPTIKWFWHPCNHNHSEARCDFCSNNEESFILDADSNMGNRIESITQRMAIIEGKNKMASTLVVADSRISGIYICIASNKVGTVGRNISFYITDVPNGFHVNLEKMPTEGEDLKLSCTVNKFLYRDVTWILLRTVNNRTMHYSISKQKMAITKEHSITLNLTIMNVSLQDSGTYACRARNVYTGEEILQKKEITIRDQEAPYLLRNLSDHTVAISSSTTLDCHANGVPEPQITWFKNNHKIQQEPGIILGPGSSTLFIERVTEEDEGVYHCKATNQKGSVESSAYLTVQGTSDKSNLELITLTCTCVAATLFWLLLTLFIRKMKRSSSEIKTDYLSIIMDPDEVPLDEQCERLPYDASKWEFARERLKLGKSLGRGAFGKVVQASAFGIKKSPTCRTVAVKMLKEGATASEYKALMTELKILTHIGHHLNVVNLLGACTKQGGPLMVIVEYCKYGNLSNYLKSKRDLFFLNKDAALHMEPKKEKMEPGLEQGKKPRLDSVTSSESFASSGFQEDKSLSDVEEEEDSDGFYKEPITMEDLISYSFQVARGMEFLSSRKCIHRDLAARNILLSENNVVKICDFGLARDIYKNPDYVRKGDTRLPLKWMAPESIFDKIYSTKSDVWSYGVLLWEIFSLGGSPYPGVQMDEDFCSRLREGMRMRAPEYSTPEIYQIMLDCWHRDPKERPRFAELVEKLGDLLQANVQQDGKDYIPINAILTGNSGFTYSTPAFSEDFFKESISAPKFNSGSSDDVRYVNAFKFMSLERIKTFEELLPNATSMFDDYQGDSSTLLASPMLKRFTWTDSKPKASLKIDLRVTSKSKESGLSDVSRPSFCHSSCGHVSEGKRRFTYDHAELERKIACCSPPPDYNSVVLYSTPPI

[12] = test system: EGF receptor-mediated signaling pathway; assay: EGF receptor-mediated signaling pathway in A549 cells (Western blot); settings: A549, Indo5 pretreated 2 h, 100 ng/ml EGF 5 min
[13] = Cytotoxicity in non-cancerous cells; assay type: cell-based; settings: human
[14] = Body weight in HepG2 xenograft nude mice model; assay type: in vivo; settings: Indo5 vs control groups
HepG2 cells [15] = assay: HepG2 cell proliferation under HGF migration conditions (MTS assay); assay type: cell-based, human
Experimental: as §1
Figure S2. […] Cell proliferation was anaylzed with MTS assay.

EPHA1 = EPHA1 (Homo sapiens, UniProt P21709); assay: In vitro kinase activity assay (HDB Kinase Selectivity Profiling); assay type: biochemical; settings: Kinase Glo Plus assay format
[16] = test system: c-Met and TrkB coexpressing cell lines (c-Met^hiTrkB^hi); assay: Cell growth of c-Met and TrkB coexpressing cell lines; assay type: cell-based; settings: Homo sapiens, read-out: IC50 value, range over cell lines
SK-N-SH = assay: Inhibition of cell proliferation (MTS assay); assay type: cell-based; settings: Homo sapiens, c-Met^loTrkB^hi, 72 h
Experimental: as §1

L02 = assay: Inhibition of cell proliferation (MTS assay); assay type: cell-based; settings: Homo sapiens, L02, c-Met^hiTrkB^lo (non-cancerous cells), 72 h
Experimental: as §1

A549 = assay: Inhibition of cell proliferation (MTS assay); assay type: cell-based; settings: Homo sapiens, A549, c-Met^hiTrkB^hi, 72 h
Experimental: as §1

NCI-H460 = assay: Inhibition of cell proliferation (MTS assay); assay type: cell-based; settings: Homo sapiens, NCI-H460, c-Met^loTrkB^lo, 72 h
Experimental: as §1

HCC-LM3 = assay: Inhibition of cell proliferation (MTS assay); assay type: cell-based; settings: Homo sapiens, HCCLM3, HCC-LM3, c-Met^hiTrkB^hi, 72 h
Experimental: as §1

MRC-5 = assay: Inhibition of cell proliferation (MTS assay); assay type: cell-based; settings: Homo sapiens, MRC5, MRC-5, c-Met^loTrkB^lo (non-cancerous cells), 72 h
Experimental: as §1

SMMC-7721 = assay: Inhibition of cell proliferation (MTS assay); assay type: cell-based; settings: Homo sapiens, SMMC-7721, c-Met^loTrkB^hi, 72 h
Experimental: as §1

BEL-7402 = assay: Inhibition of cell proliferation (MTS assay); assay type: cell-based; settings: Homo sapiens, BEL-7402, c-Met^loTrkB^lo, 72 h
Experimental: as §1

wild-type Ba/F3 cells = assay: Proliferation of wild-type Ba/F3 cells
[17] = test system: MHCC97H orthotopic tumors
From the text: For the orthotopic xenograft mouse model, MHCC97H cells were inoculated subcutaneously in the right flank of each SCID mouse. When the tumor volumes reached approximately 1 cm^3, the mice were sacrificed, and the tumors were isolated and cut into 1 mm^3 pieces. The mice were anesthetized by an intraperitoneal injection of 1% sodium pentobarbital solution. A 1-cm longitudinal skin incision was made on the right upper axillary region of the abdomen of the mouse, the peritoneum was opened and the liver was exposed. The liver was punctured by a needle, and a 1 mm^3 tumor piece was implanted. The liver was put back into the abdominal cavity gently, and the surgical opening was closed using a 5–0 surgical suture.
The tumor weights were measured (b). […] Tumor-bearing mice were sacrificed when they became moribund.

FGFR1 = FGFR1 (Homo sapiens, UniProt P11362); assay: In vitro kinase activity assay (HDB Kinase Selectivity Profiling); assay type: biochemical; settings: Kinase Glo Plus assay format
Sequence of FGFR1 (P11362 22-822): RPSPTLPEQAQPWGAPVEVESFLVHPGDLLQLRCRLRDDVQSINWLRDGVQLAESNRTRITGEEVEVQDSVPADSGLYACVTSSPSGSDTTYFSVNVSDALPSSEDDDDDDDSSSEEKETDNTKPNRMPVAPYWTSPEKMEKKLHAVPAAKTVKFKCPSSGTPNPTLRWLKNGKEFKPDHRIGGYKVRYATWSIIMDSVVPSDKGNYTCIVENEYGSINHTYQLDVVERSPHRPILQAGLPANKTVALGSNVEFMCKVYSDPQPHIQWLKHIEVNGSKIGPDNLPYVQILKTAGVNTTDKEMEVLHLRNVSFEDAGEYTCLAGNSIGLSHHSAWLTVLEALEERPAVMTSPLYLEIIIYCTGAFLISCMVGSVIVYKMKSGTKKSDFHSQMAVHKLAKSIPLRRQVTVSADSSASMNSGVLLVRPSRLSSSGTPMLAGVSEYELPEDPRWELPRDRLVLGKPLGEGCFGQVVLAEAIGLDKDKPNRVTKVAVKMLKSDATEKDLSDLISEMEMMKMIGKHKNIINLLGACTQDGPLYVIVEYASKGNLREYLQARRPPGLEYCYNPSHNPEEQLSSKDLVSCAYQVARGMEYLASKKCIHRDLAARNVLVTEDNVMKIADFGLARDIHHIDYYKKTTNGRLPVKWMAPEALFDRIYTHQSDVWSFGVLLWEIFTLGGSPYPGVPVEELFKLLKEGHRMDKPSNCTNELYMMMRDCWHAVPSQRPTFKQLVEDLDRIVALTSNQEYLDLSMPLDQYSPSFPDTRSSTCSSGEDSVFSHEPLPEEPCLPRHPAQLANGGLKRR

HepG2 cells [18] = assay: HGF-induced HepG2 cell migration (Transwell); settings: HepG2, HGF 20 ng/ml, 24 h, dose-dependent
Experimental: as §5

HCC metastasis in lung = assay: Lung metastasis in mice bearing MHCC97H orthotopic tumors (H&E); assay type: in vivo; settings: Indo5 treatment
MHCC97H = assay: cells; settings: Homo sapiens, 72 h, read-out: IC50 (μM) ± SD
Experimental: as §1

MHCC97L = assay: cells; settings: Homo sapiens, 72 h, read-out: IC50 (μM) ± SD
Experimental: as §1

[19] = test system: VEGF receptor-mediated signaling pathway; assay: VEGF receptor-mediated signaling pathway in A549 cells (Western blot); settings: A549, Indo5 pretreated 2 h, 100 ng/ml VEGF 5 min
SMMC-7721 xenograft = SMMC-7721 xenograft mice; assay type: in vivo
Experimental: as §2

Ba/F3-Tpr-Met cells [20] = settings: 0.5 μM Indo5
[21] = Crizotinib (16 mg/kg) or GNF-5837 (16 mg/kg) alone or combined, intraperitoneally, 3 weeks

Compound: C[C@@H](Oc1cc(-c2cnn(C3CCNCC3)c2)cnc1N)c1c(Cl)ccc(F)c1Cl [Crizotinib]
- BDNF-induced TrkB signaling pathway activation (TrkB signaling; HepG2, Crizotinib (0.5 μM) pretreated 2 h, BDNF 50 ng/ml): significant attenuation
- inhibition rate (tumor weight) [1, 21]: 28%
- inhibition at 0.1 µM (HepG2 cells [2]; HepG2, 100 nM Crizotinib, 48 h): 30%

Compound: Cc1ccc(NC(=O)Nc2cc(C(F)(F)F)ccc2F)cc1Nc1ccc2c(c1)NC(=O)/C2=C\c1ccc[nH]1 [GNF-5837]
- HGF-induced c-Met signaling pathway activation (c-Met signaling pathway; HepG2, GNF-5837 (4 μM) pretreated 2 h, HGF 20 ng/ml): suppressed
- inhibition rate (tumor weight) [1, 21]: 21%
- inhibition at 2 µM (HepG2 cells [2]; HepG2, 2 μM GNF-5837, 48 h): 14%

Compound: Cc1ccccc1NS(=O)(=O)c1ccc2c(c1)/C(=C/c1nc3ccccc3[nH]1)C(=O)N2 [Indo5, 3-(1H-benzimidazol-2-methylene)-5-(2-methylphenylaminosulfo)-2-indolone]
- IC50 (AXL): > 10 µM
- HGF-stimulated cell scattering (MDCK cells [3]): blocked
- IC50 (PDGFRα): > 10 µM
- body weight change ([4]; liver orthotopic mouse model, Indo5 up to highest dose (48 mg/kg), 48 mg/kg): no obvious weight changes; also recorded: not associated with loss of body weight
- tumor cells in liver tissue (histological examination) (orthotopic tumors): no obvious tumor cells
- IC50 (C-KIT): > 10 µM
- IC50 (RET): > 10 µM
- HGF-induced vasculature formation in vivo [5]: dramatically blocked
- IC50 (Ba/F3-Tpr-Met cells [6]): 0.618 µM
- NGF-induced TrkA signaling (TrkA signaling): almost completely inhibited
- cytotoxicity (mouse hepatocytes; 0.5 μM Indo5, 72 h, data not shown): no cytotoxicity was observed
- HGF-induced cell proliferation (mouse hepatocytes; mouse hepatocytes, HGF 20 ng/ml 48 h, MTS): dose-dependently inhibited
- BDNF-induced cell migration (HepG2 cells [7]): suppressed
- effect on cell proliferation (MDCK cells [8]): No obvious effect
- xenograft tumor growth (SK-N-SH xenograft): dose-dependent inhibitory effect
- BDNF-induced growth (Ba/F3-TrkB cells): inhibited
- IC50 (EGFR): > 10 µM
- IC50 (C-KIT(v654A)): > 10 µM
- BDNF-induced TrkB signaling (TrkB signaling; HepG2, Indo5 pretreated 2 h, BDNF 50 ng/ml 5 min, dose-dependent): decreased
- IC50 (InsR): > 10 µM
- IC50 [9]: 2.98 to 9.19 µM
- IC50 (IGF1R): > 10 µM
- rate of tumor growth inhibition ([10]; orthotopic HepG2, 8 mg/kg intraperitoneally once daily for 3 weeks): approximately 49%
- rate of tumor growth inhibition ([10]; orthotopic HepG2, 16 mg/kg intraperitoneally once daily for 3 weeks): 61.2%
- overall health of the animals ([10]; orthotopic HepG2 model, Indo5 vs control, data not shown): not adversely affected
- apoptosis in tumor tissues (TUNEL staining) [11]: increased apoptosis
- IC50 (Ephb1): > 10 µM
- half-life (Half-life in plasma): 5 min
- IC50 (EGFR(T790,L858R)): > 10 µM
- IC50 (FLT1): > 10 µM
- activation of EGF receptor-mediated signaling pathway [12]: no effect
- HGF-induced c-Met signaling pathway activation (c-Met signaling pathway; HepG2, 0.5 μM Indo5, pretreated 2 h, HGF 20 ng/ml 5 min): dramatically suppressed
- IC50 [13]: > 30 µM
- mouse body weights [14]: almost unchanged
- effect on cell proliferation (HepG2 cells [15]): weak inhibitory effect
- IC50 (EPHA1): > 10 µM
- IC50 [16]: 1.11 to 1.87 µM
- IC50 (SK-N-SH): 2.982 ± 0.019 µM
- IC50 (L02): 32.52 ± 0.075 µM
- IC50 (A549): 1.62 ± 0.008 µM
- IC50 (NCI-H460): 9.185 ± 0.035 µM
- IC50 (HCC-LM3): 1.873 ± 0.012 µM
- IC50 (MRC-5): > 100 µM
- IC50 (SMMC-7721): 3.598 ± 0.022 µM
- IC50 (BEL-7402): 5.605 ± 0.017 µM
- effect on cell proliferation (wild-type Ba/F3 cells): no obvious effect
- survival rate ([17]; 24 mg/kg Indo5 once daily by oral gavage): 40%
- overall survival rate ([17]; 48 mg/kg Indo5 once daily by oral gavage): 77.7%
- IC50 (FGFR1): > 10 µM
- HGF-induced cell migration (HepG2 cells [18]): significantly suppressed
- HCC metastasis in lung (HCC metastasis in lung): dramatic decrease
- IC50 (MHCC97H): 1.11 ± 0.018 µM
- IC50 (MHCC97L): 1.28 ± 0.016 µM
- inhibition rate (tumor weight) ([1]; Indo5 16 mg/kg, intraperitoneally once daily, 21 days): 65.2%
- activation of VEGF receptor-mediated signaling pathway [19]: no effect
- xenograft tumor growth (SMMC-7721 xenograft): dose-dependent inhibitory effect
- cell apoptosis (Ba/F3-Tpr-Met cells [20]): markedly induced cell apoptosis

Compound: CNC(=O)c1cc(Oc2ccc(NC(=O)Nc3ccc(Cl)c(C(F)(F)F)c3)cc2)ccn1 [Sorafenib, reference compound]
- body weight loss ([4]; sorafenib treatment, mice): up to 10%
- survival rate ([17]; 50 mg/kg Sorafenib once daily by oral gavage): 44%
